The test concerns OT-1 transgenic splenocytes. Description: In vitro stimulation of OT-1 splenocytes with peptide antigen in the presence of TLR agonists, surface markers by flow cytometry. Type of test: cell-based, mice. Details: key to 4-1BB / PD-1 / LAG3 / CD160 / CD244.2 / BTLA / VISTA: “+” means increase; “−” means decrease; “=” means no change; “=/+” or “=/−” means the change is there but not significant; “=/+” or “=/−” means the change is there but not significant. As to conditions: for 4-1BB / BTLA / CD160 / CD244.2 / LAG3 / PD-1 / VISTA: OT-1 splenocytes, high affinity antigen plus TLR agonist, versus antigen alone; for T cell activation measured by 4-1BB / PD-1 expression on activated T cells / levels of tested checkpoint markers (BTLA, VISTA, CD160, CD244.2): in words; for T cell activation measured by 4-1BB: SIINFEKL plus TLR agonist; for PD-1 expression on activated T cells: SIINFEKL plus TLR agonist versus antigen alone, up to 4 days; for levels of tested checkpoint markers (BTLA, VISTA, CD160, CD244.2): high affinity antigen plus TLR agonist versus no TLR agonist. The procedure:
T cell activation was measured by the levels of marker 4-1BB (a/k/a CD137, a member of the TNF receptor superfamily). The level of PD-1 expression was also assessed in these cells (FIG. 1B).
There was no difference in LAG3 expression between the control cells and cells treated with any of the assayed TLR agonists.
OT-1 transgenic splenocytes were treated with high affinity antigen in combination with Pam3CSK4 (TLR1 and 2 agonist), Gardiquimod (TLR7 agonist) or no TLR agonist and the levels of different checkpoint markers or T cell stimulation (measured by 4-1BB, FIG. 5) were assayed. The checkpoint markers BTLA (FIG. 6), VISTA (FIG. 7), CD160 (FIG. 8) and CD244.2 (FIG. 9) were assayed.
TLR stimulation at the time of T-cell activation in vitro affects expression of PD-1. Given that CpG-rich DNA is a TLR9 agonist and Lm is a TLR2 agonist, we questioned whether TLR stimulation with different ligands could similarly affect expression of different T-cell checkpoint inhibitors. […] OT-1 splenocytes were stimulated in vitro with peptides of different affinity for MHC class I (high-affinity SIINFEKL peptide (SEQ ID NO:1, OVA), moderate-affinity SIINTEKL peptide (SEQ ID NO:2, FT), or low-affinity SIINFEKP peptide (SEQ ID NO:7, LP)), alone or in the presence of different TLR ligands (TLR 1/2 (Pam3CSK4), TLR 3 (Poly I:C), TLR 4 (MPLAs), TLR 7 (Gardiquimod), TLR 7/8 (R848), or TLR 9 (ODN1826)). […] Similarly, LAG-3 expression increased by day 3, but was not affected by the presence of different TLR ligands. […] This reduction in PD-1 expression was observed most with the high-affinity SIINFEKL (SEQ ID NO:1) epitope, but also observed following activation with lower affinity epitopes. Given these findings, we evaluated expression of multiple other T-cell checkpoint molecules following T-cell activation in the presence of TLR ligands. […] Cytotoxic T-lymphocyte-associated protein 4 (CTLA-4) expression, however, was increased in the presence of TLR1/2 agonist. Similar results were found activating OT-1 cells with the lower affinity FT (SIINTEKL peptide (SEQ ID NO:2)), LP (SIINFEKP peptide (SEQ ID NO:7), or LY (SIINFEKY, SEQ ID NO:8) epitopes (FIG. 19).
In vitro T-cell stimulation: Spleens were collected from OT-1 mice, processed through a mesh screen, and splenocytes were isolated by centrifugation after red blood cell osmotic lysis with ammonium chloride/[…] lysis buffer (0.15 M NH4Cl, 10 mM KHCO3, 0.1 mM EDTA). Splenocytes were cultured at 2×10^6/mL in RPMI 1640 medium supplemented with L-glutamine, 10% fetal calf serum (FCS), 200 U/mL penicillin/streptomycin, 1% sodium pyruvate, 1% HEPES, 50 μM β-MeOH, and 2 μg/mL of the designated peptide. TLR agonists were all purchased from InvivoGen (San Diego, CA) and added one hour before peptides at the following optimal concentrations based on preliminary studies and previously reported results: 300 ng/ml Pam3CSK4, 10 μg/mL Poly(I:C) HMW, 10 μg/ml MPLAs, 3 μg/ml Gardiquimod, 10 μg/ml R848, 5 μM ODN 1826. At the time points indicated, cells were stained, fixed for 15 min at 4° C. in cytofix (BD Biosciences (BD), San Jose, CA; 554655), and frozen in FCS+10% DMSO. After all time points were collected, cells from all times were thawed, rinsed and resuspended in PBS+3% FCS+1 mM EDTA and analyzed by flow cytometry. Cells were stained for 30 min at 4° C. in a 1:4 dilution of brilliant stain buffer (BD 563794) in PBS+3% FCS+1 mM EDTA. In order to assess co-stimulation, blocking antibodies for CD80 (0.6 μg/mL), CD86 (0.25 μg/mL) or OX40L (0.6 μg/mL) were added 1 hour prior to antigen.

“Also recorded” adds a separate entry of the source.

In the case of `CCNCc1nc2c(N)nc3ccccc3c2n1CC(C)(C)O` [Gardiquimod], the 4-1BB result was “=”, the BTLA result is “=/−”, the CD160 result was “−” and the CD244.2 entry is on record as “=/−”. Moreover, the LAG3 entry was “=”, the PD-1 entry was “−”, the VISTA entry is given as “=” and the “T cell activation measured by 4-1BB” value is recorded as “activated”. In addition, the “PD-1 expression on activated T cells” value is “expressed low levels of PD-1; also recorded: significantly reduced” and the “levels of tested checkpoint markers (BTLA, VISTA, CD160, CD244.2)” value is recorded as “did not affect”.

As to Monophosphoryl Lipid A [MPLAs], the 4-1BB result is given as “=”, the LAG3 entry was “=”, the PD-1 result is recorded as “=” and the “PD-1 expression on activated T cells” value was “did not significantly reduce”. For the same molecule, the “PD-1 expression on activated T cells” value (listed as TLR4) is reported as “did not lead to PD-1 downregulation”.

On to Pam3CSK4, for which the 4-1BB entry was “=”, the BTLA entry was “=/−”, the CD160 entry was “−” and the CD244.2 entry was “=”. Besides, the LAG3 result is on record as “=”, the PD-1 entry is “−”, the VISTA entry is given as “−” and the “T cell activation measured by 4-1BB” value is reported as “activated”. For the same molecule, the “PD-1 expression on activated T cells” value is “expressed low levels of PD-1; also recorded: significantly reduced” and the “levels of tested checkpoint markers (BTLA, VISTA, CD160, CD244.2)” value was “did not affect”. The CTLA-4 expression result (OT-1 T cells activated with SIINFEKL in the presence of TLR ligand) is “increased”.

Poly(I:C) [PolyI:C]: the 4-1BB entry is “=”, the LAG3 entry was “=/+”, the PD-1 entry is listed as “=/−” and the “PD-1 expression on activated T cells” value is “did not significantly reduce”. For the setting “listed as TLR3”, the “PD-1 expression on activated T cells” value was “did not lead to decreased PD-1 expression”.

Source of the values: patent US20240390487A1, “TLR AGONISTS FOR REDUCING ACTIVATION-INDUCED PD-1 EXPRESSION ON T CELLS AND METHODS OF USE” (WISCONSIN ALUMNI RESEARCH FOUNDATION, priority 2016, published 2024).
